# Test results as given in US11401286B2 (Tetra Discovery Partners, LLC, priority 2012, dated 2022).
# Target: PDE4D7 (Homo sapiens (Human), UniProt Q08499)
# Details: read-out: PDE4D7 IC50; PDE4D7 without asterisk
# PDE4D7, sequence (Q08499 other isoform, or with tags, fused parts or gaps): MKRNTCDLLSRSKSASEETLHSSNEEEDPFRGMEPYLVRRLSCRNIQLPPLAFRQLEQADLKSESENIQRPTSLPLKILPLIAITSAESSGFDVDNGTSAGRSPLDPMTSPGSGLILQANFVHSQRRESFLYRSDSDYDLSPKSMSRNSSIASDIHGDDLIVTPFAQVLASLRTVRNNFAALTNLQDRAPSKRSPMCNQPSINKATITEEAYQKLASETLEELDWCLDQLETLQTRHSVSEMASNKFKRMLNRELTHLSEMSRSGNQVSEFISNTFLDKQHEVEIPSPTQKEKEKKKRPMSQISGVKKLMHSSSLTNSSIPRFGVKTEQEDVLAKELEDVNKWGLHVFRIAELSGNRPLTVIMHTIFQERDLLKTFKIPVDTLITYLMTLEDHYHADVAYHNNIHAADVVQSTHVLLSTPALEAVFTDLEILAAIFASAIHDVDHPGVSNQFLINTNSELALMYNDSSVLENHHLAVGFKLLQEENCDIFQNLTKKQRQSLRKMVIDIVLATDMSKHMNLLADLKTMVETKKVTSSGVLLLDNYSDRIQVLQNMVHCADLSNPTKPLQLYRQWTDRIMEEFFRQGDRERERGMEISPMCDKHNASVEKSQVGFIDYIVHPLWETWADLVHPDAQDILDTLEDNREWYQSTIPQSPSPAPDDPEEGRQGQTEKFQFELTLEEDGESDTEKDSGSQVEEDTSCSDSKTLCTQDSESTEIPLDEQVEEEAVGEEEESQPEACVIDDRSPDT
row,IC50 [nM],Structure (SMILES)
1,> 1000,"OB1OCc2cc(Nc3nc(-c4cccc(Cl)c4)nc4c3CCC4)ccc21 [Example 294, 2-(3-Chlorophenyl)-N-(1-hydroxy-3H-2,1-benzoxaborol-5-yl)-6,7-dihydro-5H-cyclopenta[d]pyrimidin-4-amine]"
2,> 1000,"OB1OCc2cc(Nc3nc(-c4ccc(Cl)cc4)nc4c3CCC4)ccc21 [Example 295, 2-(4-Chlorophenyl)-N-(1-hydroxy-3H-2,1-benzoxaborol-5-yl)-6,7-dihydro-5H-cyclopenta[d]pyrimidin-4-amine]"
3,> 1000,"O=C(O)Cc1ccc(Nc2cc(C(F)(F)F)nc(-c3ccc(Cl)s3)n2)cc1 [Example 296, 2-[4-[[2-(5-Chloro-2-thienyl)-6-(trifluoromethyl)pyrimidin-4-yl]amino]phenyl]acetic acid]"
4,> 1000,"O=C(O)Cc1ccc(Nc2cc(C3CC3)nc(-c3ccc(Cl)s3)n2)cc1 [Example 297, 2-[4-[[2-(5-Chloro-2-thienyl)-6-cyclopropyl-pyrimidin-4-yl]amino]phenyl]acetic acid]"
5,> 1000,"Clc1ccc(-c2nc(Nc3ccc(Cc4nnn[nH]4)cc3)cc(C3CC3)n2)s1 [Example 298, 2-(5-Chloro-2-thienyl)-6-cyclopropyl-N-[4-(1H-tetrazol-5-ylmethyl)phenyl]pyrimidin-4-amine]"
6,> 1000,"CCc1c(C)nc(-c2ccc(Cl)s2)nc1Nc1ccc(Cn2cccn2)cc1 [Example 299, 2-(5-Chloro-2-thienyl)-5-ethyl-6-methyl-N-[4-(pyrazol-1-ylmethyl)phenyl]pyrimidin-4-amine]"
7,> 1000,"CCc1c(C)nc(-c2ccc(Cl)s2)nc1Nc1ccc(CC(=O)NC#N)cc1 [Example 301, 2-[4-[[2-(5-Chloro-2-thienyl)-5-ethyl-6-methyl-pyrimidin-4-yl]amino]phenyl]-N-cyano-acetamide]"
8,> 1000,"CCc1c(C)nc(-c2ccc(Cl)s2)nc1Nc1ccc(Cc2noc(=O)[nH]2)cc1 [Example 302, 3-[[4-[[2-(5-Chloro-2-thienyl)-5-ethyl-6-methyl-pyrimidin-4-yl]amino]phenyl]methyl]-4H-1,2,4-oxadiazol-5-one]"
9,> 1000,"CCc1c(C)nc(-c2ccc(Cl)s2)nc1Nc1ccc(C2=C(O)CCC2=O)cc1 [Example 303, 2-[4-[[2-(5-Chloro-2-thienyl)-5-ethyl-6-methyl-pyrimidin-4-yl]amino]phenyl]-3-hydroxy-cyclopent-2-en-1-one]"
10,> 1000,"CCc1c(C)nc(-c2ccc(Cl)s2)nc1Nc1ccc(Cn2cc(Cl)cn2)cc1 [Example 304, N-[4-[(4-Chloropyrazol-1-yl)methyl]phenyl]-2-(5-chloro-2-thienyl)-5-ethyl-6-methyl-pyrimidin-4-amine]"
11,> 1000,"CCc1c(C)nc(-c2ccc(Cl)s2)nc1Nc1ccc(Cc2nc(C(=O)OC)c[nH]2)cc1 [Example 305, Methyl 2-[[4-[[2-(5-chloro-2-thienyl)-5-ethyl-6-methyl-pyrimidin-4-yl]amino]phenyl]methyl]-1H-imidazole-4-carboxylate]"
12,> 1000,"CCc1c(C)nc(-c2ccc(Cl)s2)nc1Nc1ccc(Cc2nc(C(=O)O)c[nH]2)cc1 [Example 306, 2-[[4-[[2-(5-Chloro-2-thienyl)-5-ethyl-6-methyl-pyrimidin-4-yl]amino]phenyl]methyl]-1H-imidazole-4-carboxylic acid]"
13,< 1000,"CCCNC(=O)Cc1ccc(Nc2nc(-c3ccc(Cl)s3)nc(C)c2CC)cc1 [Example 307, 2-[4-[[2-(5-Chloro-2-thienyl)-5-ethyl-6-methyl-pyrimidin-4-yl]amino]phenyl]-N-propyl-acetamide]"
14,> 1000,"CCc1c(C)nc(-c2ccc(Cl)s2)nc1Nc1ccc(CC(=O)NC)cc1 [Example 308, 2-[4-[[2-(5-Chloro-2-thienyl)-5-ethyl-6-methyl-pyrimidin-4-yl]amino]phenyl]-N-methyl-acetamide]"
15,< 1000,"CCNC(=O)Cc1ccc(Nc2nc(-c3ccc(Cl)s3)nc(C)c2CC)cc1 [Example 309, 2-[4-[[2-(5-Chloro-2-thienyl)-5-ethyl-6-methyl-pyrimidin-4-yl]amino]phenyl]-N-ethyl-acetamide]"
16,> 1000,"CCc1c(C)nc(-c2ccc(Cl)s2)nc1Nc1ccc(Cc2nc(C(N)=O)c[nH]2)cc1 [Example 310, 2-[[4-[[2-(5-Chloro-2-thienyl)-5-ethyl-6-methyl-pyrimidin-4-yl]amino]phenyl]methyl]-1H-imidazole-4-carboxamide]"
17,> 1000,"CCc1c(C)nc(-c2ccc(Cl)s2)nc1NCc1ccc(B(O)O)cc1 [Example 311, [4-[[[2-(5-Chloro-2-thienyl)-5-ethyl-6-methyl-pyrimidin-4-yl]amino]methyl]phenyl]boronic acid]"
18,> 1000,"CCc1c(C)nc(-c2ccc(Cl)s2)nc1Nc1ccc2c(c1)CS(=O)(=O)C2 [Example 312, 2-(5-Chloro-2-thienyl)-N-(2,2-dioxo-1,3-dihydro-2-benzothiophen-5-yl)-5-ethyl-6-methyl-pyrimidin-4-amine]"
19,< 1000,"Clc1cccc(-c2nc3c(c(Nc4ccc(Cc5nn[nH]n5)cc4)n2)SCCC3)c1 [Example 313, 2-(3-Chlorophenyl)-N-[4-(2H-tetrazol-5-ylmethyl)phenyl]-7,8-dihydro-6H-thiopyrano[3,2-d]pyrimidin-4-amine]"
20,< 1000,"N#CNC(=O)Cc1ccc(Nc2nc(-c3cccc(Cl)c3)nc3c2SCCC3)cc1 [Example 314, 2-[4-[[2-(3-Chlorophenyl)-7,8-dihydro-6H-thiopyrano[3,2-d]pyrimidin-4-yl]amino]phenyl]-N-cyano-acetamide]"
21,< 1000,"N#CNC(=O)Cc1ccc(Nc2nc(-c3cccc(Cl)c3)nc3c2S(=O)(=O)CCC3)cc1 [Example 315, 2-[4-[[2-(3-Chlorophenyl)-5,5-dioxo-7,8-dihydro-6H-thiopyrano[3,2-d]pyrimidin-4-yl]amino]phenyl]-N-cyano-acetamide]"
22,< 1000,"O=S1(=O)CCCc2nc(-c3cccc(Cl)c3)nc(Nc3ccc(Cc4nn[nH]n4)cc3)c21 [Example 316, 2-(3-Chlorophenyl)-5,5-dioxo-N-[4-(2H-tetrazol-5-ylmethyl)phenyl]-7,8-dihydro-6H-thiopyrano[3,2-d]pyrimidin-4-amine]"
23,> 1000,"CCc1c(C)nc(-c2ccc(Cl)s2)nc1Nc1ccc(CS(C)(=O)=O)cc1 [Example 317, 2-(5-chloro-2-thienyl)-5-ethyl-6-methyl-N-[4-(methylsulfonylmethyl)phenyl]pyrimidin-4-amine]"

# System: recombinant human PDE4
# Details: reported value; read-out: IC50 with respect to inhibiting recombinant human PDE4; cited from earlier work
row,Structure (SMILES),IC50 [nM]
1,COc1ccc(C2CNC(=O)C2)cc1OC1CCCC1 (stereo not drawn) [rolipram],~200
